Reference: patent US9944645B2, “Imidazotriazines and imidazopyrimidines as kinase inhibitors” (Incyte Holdings Corporation, priority 2006, dated 2018)

The compounds below were run against c-Met kinase (h-Met; histidine-tagged c-Met catalytic domain fusion protein) (Homo sapiens (Human), UniProt P08581) (assay: In Vitro c-Met Kinase Enzyme Assays). Conditions: phosphorylation of poly Glu-Tyr, 5 μM ATP, 25 minutes at 30° C.
Format: biochemical
Protocol: Compounds were screened in vitro for their ability to inhibit c-Met kinase activity. […] Briefly, histidine-tagged c-Met catalytic domain fusion protein (Invitrogen, #PV3143) was used for the assay. […] The reaction lasted for 25 minutes at 30° C. After the reaction was completed, the contents of the plates was discarded. Plates were then washed with TBS-T (250 μL/well, 5×) and then blocked with TBS-T containing 1% BSA for 2 hours. The contents of the plates was discarded, and 100 μL (per well) of peroxidase-labeled anti-phospho-tyrosine antibody (Sigma, #A5964) diluted (1:60,000) in 1% BSA containing TBS-T were then added and incubated for 1 hour. Plates were washed with TBS-T ([…], 5×) and followed by the color reaction using 100 μL (1:1 mixture) of H2O2 and tetramethylbenzidine (R&D Systems, #DY999). The reaction was stopped in minutes with 100 μL of 2 N H2SO4. The optical density was measured immediately using a microplate reader at 450 nm with wavelength correction at 540 nm. IC50 values were calculated with the GraphPad Prism software. The linear range (i.e., the time period over which the rate remained equivalent to the initial rate) was determined for the kinase and IC50 determinations were performed within this range.

Chain of c-Met kinase (h-Met; histidine-tagged c-Met catalytic domain fusion protein) (P08581 1078-1345): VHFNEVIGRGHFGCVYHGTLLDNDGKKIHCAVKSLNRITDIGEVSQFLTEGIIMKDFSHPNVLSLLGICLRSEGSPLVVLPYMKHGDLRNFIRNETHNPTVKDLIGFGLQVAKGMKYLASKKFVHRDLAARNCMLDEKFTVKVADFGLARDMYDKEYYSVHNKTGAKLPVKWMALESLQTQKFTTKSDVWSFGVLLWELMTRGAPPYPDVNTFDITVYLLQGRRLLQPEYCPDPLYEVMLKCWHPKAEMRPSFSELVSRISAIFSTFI

Row | SMILES | IC50
1 | COc1ccc(Oc2cnc3ncc(-c4ccc(Br)c(F)c4)nn23)cc1 [Example 14, 2-(4-Bromo-3-fluorophenyl)-7-(4-methoxyphenoxy)imidazo[1,2-b][1,2,4]triazine] | < 500 nM
2 | O=C(NC1CCN(c2ccccn2)CC1)c1ccc(-c2cnc3ncc(C4(c5ccc6ncccc6c5)CC4)n3c2)cc1 [Example 33, N-(1-Pyridin-2-ylpiperidin-4-yl)-4-[3-(1-quinolin-6-ylcyclopropyl)imidazo[1,2-a]pyrimidin-6-yl]benzamide] | < 500 nM
3 | O=C(NCC1CCOCC1)c1ccc(-c2cnc3ncc(Cc4ccc5ncccc5c4)n3n2)cc1F [Example 147, 2-Fluoro-4-[7-(quinolin-6-ylmethyl)imidazo[1,2-b][1,2,4]triazin-2-yl]-N-(tetrahydro-2H-pyran-4-ylmethyl)benzamide] | < 500 nM
4 | CNC(=O)c1ccc(-c2ccc(-c3cnc4ncc(C5(c6ccc7ncccc7c6)CC5)n4n3)cc2)cn1 [Example 94, N-Methyl-5-{4-[7-(1-quinolin-6-ylcyclopropyl)imidazo[1,2-b][1,2,4]triazin-2-yl]phenyl}pyridine-2-carboxamide] | < 500 nM
5 | O=C(c1ccc(-c2cnc3ncc(C4(c5ccc6ncccc6c5)CC4)n3c2)cc1Cl)N1CCC1 [Example 178, 6-(1-{6-[4-(Azetidin-1-ylcarbonyl)-3-chlorophenyl]imidazo[1,2-a]pyrimidin-3-yl}cyclopropyl)quinoline] | < 500 nM
6 | CN1Cc2cc(-c3cnc4ncc(C5(c6ccc7ncccc7c6)CC5)n4c3)ccc2C1=O [Example 186, 2-Methyl-5-[3-(1-quinolin-6-ylcyclopropyl)imidazo[1,2-a]pyrimidin-6-yl]isoindolin-1-one] | < 500 nM
7 | CC(NC(=O)c1ccc(-c2cnc3ncc(C4(c5ccc6ncccc6c5)CC4)n3c2)cc1F)C(=O)N1CCC1 (stereo not drawn) [Example 200, N-(2-Azetidin-1-yl-1-methyl-2-oxoethyl)-2-fluoro-4-[3-(1-quinolin-6-ylcyclopropyl)imidazo[1,2-a]pyrimidin-6-yl]benzamide] | < 500 nM
8 | c1cnc2ccc(C3(c4cnc5ncc(-c6ccc(-c7cncnc7)cc6)nn45)CC3)cc2c1 [Example 95, 6-{1-[2(4-Pyrimidin-5-yl-phenyl)imidazo[1,2-b][1,2,4]triazin-7-yl]cyclopropyl}quinoline] | < 500 nM
9 | O[C@@H]1CCN(Cc2ccc(-c3cnc4ncc(C5(c6ccc7ncccc7c6)CC5)n4c3)cc2F)C1 [Example 68, (3R)-1-{2-Fluoro-4-[3-(1-quinolin-6-ylcyclopropyl)imidazo[1,2-a]pyrimidin-6-yl]benzyl}pyrrolidin-3-ol] | < 500 nM
10 | Fc1cc(-c2cnc3ncc(Cc4ccc5ncccc5c4)n3n2)ccc1-n1ccnc1 [Example 129, 6-{2-[3-Fluoro-4-(1H-imidazol-1-yl)phenyl]imidazo[1,2-b][1,2,4]triazin-7-ylmethyl}quinoline] | < 500 nM
11 | O=C(N[C@H](CO)Cc1ccccc1)c1ccc(-c2cnc3ncc(C4(c5ccc6ncccc6c5)CC4)n3n2)cc1 [Example 111, N-[(1S)-1-Benzyl-2-hydroxyethyl]-4-[7-(1-quinolin-6-ylcyclopropyl)imidazo[1,2-b][1,2,4]triazin-2-yl]benzamide] | < 500 nM
12 | CNC(=O)c1ccc(-c2cnc3ncc(C4(c5ccc6ncccc6c5)CC4)n3c2)cc1F [Example 18, 2-Fluoro-N-methyl-4-[3-(1-quinolin-6-ylcyclopropyl)imidazo[1,2-a]pyrimidin-6-yl]benzamide] | < 500 nM
13 | Fc1cc(-c2cnc3ncc(C4(c5ccc6ncccc6c5)CC4)n3c2)ccc1Cn1cccn1 [Example 69, 6-(1-{6-[3-Fluoro-4-(1H-pyrazol-1-ylmethyl)phenyl]imidazo[1,2-a]pyrimidin-3-yl}cyclopropyl)quinoline] | < 500 nM
14 | CN(C)C(=O)c1ccc(-c2ccc(-c3cnc4ncc(C5(c6ccc7ncccc7c6)CC5)n4c3)cc2F)cn1 [Example 86, 5-{2-Fluoro-4-[3-(1-quinolin-6-ylcyclopropyl)imidazo[1,2-a]pyrimidin-6-yl]phenyl}-N,N-dimethylpyridine-2-carboxamide] | < 500 nM
15 | O=C(NCC1CC1)c1ccc(-c2cnc3ncc(Cc4ccc5ncccc5c4)n3n2)cc1F [Example 146, N-(Cyclopropylmethyl)-2-fluoro-4-[7-(quinolin-6-ylmethyl)imidazo[1,2-b][1,2,4]triazin-2-yl]benzamide] | < 500 nM
16 | CNC(=O)c1cccc(-c2cnc3ncc(C4(c5ccc6ncccc6c5)CC4)n3c2)c1 [Example 49, N-Methyl-3-[3-(1-quinolin-6-ylcyclopropyl)imidazo[1,2-a]pyrimidin-6-yl]benzamide] | < 500 nM
17 | CC(Oc1ccc(-c2cnc3ncc(C4(c5ccc6ncccc6c5)CC4)n3c2)cc1F)C(=O)N1CCCC1 (stereo not drawn) [Example 21, 6-(1-{6-[3-Fluoro-4-(1-methyl-2-oxo-2-pyrrolidin-1-ylethoxy)phenyl]imidazo[1,2-a]pyrimidin-3-yl}cyclopropyl)quinoline] | < 500 nM

Row | SMILES | IC50
18 | CNC(=O)c1c(F)cc(-c2cnc3ncc(C4(c5ccc6ncccc6c5)CC4)n3c2)cc1F [Example 195, 6-Difluoro-N-methyl-4-[3-(1-quinolin-6-ylcyclopropyl)imidazo[1,2-a]pyrimidin-6-yl]benzamide] | < 500 nM
19 | COC(=O)NCc1ccc(-c2cnc3ncc(C4(c5ccc6ncccc6c5)CC4)n3c2)cc1F [Example 66, Methyl 2-fluoro-4-[3-(1-quinolin-6-ylcyclopropyl)imidazo[1,2-a]pyrimidin-6-yl]benzylcarbamate] | < 500 nM
20 | N#CC1(c2ccc(-c3cnc4ncc(C5(c6ccc7ncccc7c6)CC5)n4c3)cc2)CC1 [Example 64, 1-{4-[3-(1-Quinolin-6-ylcyclopropyl)imidazo[1,2-a]pyrimidin-6-yl]phenyl}cyclopropanecarbonitrile] | < 500 nM
21 | O=C1c2ccc(-c3cnc4ncc(C5(c6ccc7ncccc7c6)CC5)n4c3)cc2CN1C1CC1 [Example 182, 2-Cyclopropyl-5-[3-(1-quinolin-6-ylcyclopropyl)imidazo[1,2-a]pyrimidin-6-yl]isoindolin-1-one] | < 500 nM
22 | COCC1(NC(=O)c2ccc(-c3cnc4ncc(C5(c6ccc7ncccc7c6)CC5)n4n3)cc2)CC1 [Example 115, N-[1-(Methoxymethyl)cyclopropyl]-4-[7-(1-quinolin-6-ylcyclopropyl)imidazo[1,2-b][1,2,4]triazin-2-yl]benzamide] | < 500 nM
23 | c1ccc(CN2CCC(n3cc(-c4cnc5ncc(C6(c7ccc8ncccc8c7)CC6)n5c4)cn3)C2)cc1 (stereo not drawn) [Example 89, 6-(1-{6-[1-(1-Benzylpyrrolidin-3-yl)-1H-pyrazol-4-yl]imidazo[1,2-a]pyrimidin-3-yl}cyclopropyl)quinoline] | < 3000 nM
24 | CNC(=O)[C@@H](NC(=O)c1ccc(-c2cnc3ncc(C4(c5ccc6ncccc6c5)CC4)n3c2)cc1)C(C)(C)C [Example 43, N-(1S)-2,2-Dimethyl-1-[(methylamino)carbonyl]propyl-4-[3-(1-quinolin-6-ylcyclopropyl)imidazo[1,2-a]pyrimidin-6-yl]benzamide] | < 500 nM
25 | CNC(=O)[C@@H](NC(=O)c1ccc(-c2cnc3ncc(C4(c5ccc6ncccc6c5)CC4)n3c2)cn1)C(C)(C)C [Example 59, N-(1S)-2,2-Dimethyl-1-[(methylamino)carbonyl]propyl-5-[3-(1-quinolin-6-ylcyclopropyl)imidazo[1,2-a]pyrimidin-6-yl]pyridine-2-carboxamide] | < 500 nM
26 | O=C(N[C@H]1CCC[C@@H]1O)c1ccc(-c2cnc3ncc(Cc4ccc5ncccc5c4)n3n2)cc1F [Example 142, 2-Fluoro-N-[(1S,2S)-2-hydroxycyclopentyl]-4-[7-(quinolin-6-ylmethyl)imidazo[1,2-b][1,2,4]triazin-2-yl]benzamide] | < 500 nM
27 | O=C1CCCN1c1ccc(-c2cnc3ncc(C4(c5ccc6ncccc6c5)CC4)n3c2)cc1F [Example 81, 1-{2-Fluoro-4-[3-(1-quinolin-6-ylcyclopropyl)imidazo[1,2-a]pyrimidin-6-yl]phenyl}pyrrolidin-2-one] | < 2000 nM
28 | CNC(=O)c1ccc(-c2cnc3ncc(C4(c5ccc6ncccc6c5)CC4)n3c2)c(F)c1 [Example 75, 3-Fluoro-N-methyl-4-[3-(1-quinolin-6-ylcyclopropyl)imidazo[1,2-a]pyrimidin-6-yl]benzamide] | < 500 nM
29 | N#CCn1cc(-c2cnc3ncc(Cc4ccc5ncccc5c4)n3n2)cn1 [Example 139, 4-[7-(Quinolin-6-ylmethyl)imidazo[1,2-b][1,2,4]triazin-2-yl]-1H-pyrazol-1-ylacetonitrile] | < 500 nM
30 | c1cnc2ccc(C3(c4cnc5ncc(-c6cscn6)cn45)CC3)cc2c1 [Example 74, 6-{1-[6-(1,3-Thiazol-4-yl)imidazo[1,2-a]pyrimidin-3-yl]cyclopropyl}quinoline] | < 500 nM
31 | CN(C)C(=O)C1(NC(=O)c2ccc(-c3cnc4ncc(C5(c6ccc7ncccc7c6)CC5)n4c3)cc2)CCC1 [Example 57, N-1-[(Dimethylamino)carbonyl]cyclobutyl-4-[3-(1-quinolin-6-ylcyclopropyl)imidazo[1,2-a]pyrimidin-6-yl]benzamide] | < 500 nM
32 | CNC(=O)c1ccc(-c2cnc3ncc(Sc4ccc5ncccc5c4)n3c2)cc1F [Example 11, 2-Fluoro-N-methyl-4-[3-(quinolin-6-ylthio)imidazo[1,2-a]pyrimidin-6-yl]benzamide] | < 500 nM
33 | COC[C@@H](NC(=O)c1ccc(-c2cnc3ncc(C4(c5ccc6ncccc6c5)CC4)n3n2)cc1)C(C)C [Example 117] | < 500 nM
